Measured values reported in US20230416329A1, “A PEPTIDE WITH DISULFIDE BONDS AND INHIBITORY ACTIVITY AGAINST SERINE PROTEASES, DERIVED HYBRID PEPTIDES THEREOF, AND USES THEREOF” (INSTITUTE OF MATERIA MEDICA , CHINESE ACADEMY OF MEDICAL …, priority 2020, published 2023).

Assays:
DPP-IV = DPP-IV (Homo sapiens, UniProt P27487); test: Tolerance of GLP-1 and its analogues to DPP-IV (RP-HPLC remaining peak area); assay type: in vitro ADME; settings: peptide 25 μM, DPP-IV 0.5 ng/μL, 37° C.; for Remaining peak area (%)/DPP-IV: 0.0 h; for remaining at 0.5 h, 25 μM / remaining at 2 h, 25 μM / remaining at 4 h, 25 μM / remaining at 8 h, 25 μM / remaining at 12 h, 25 μM: isolated DPP-IV enzyme in buffer, pH 8
Experimental: (§1) Mix by centrifugation at 8000 rpm for 30 seconds.
(2) Arrange a certain volume of 0.005 μg/μL DPP-IV solution in another sterile EP.

NEP24.11 = NEP24.11 (Homo sapiens, UniProt P08473); test: Tolerance of GLP-1 and its analogues to NEP24.11 (RP-HPLC remaining peak area); assay type: in vitro ADME
Experimental: as §1
Arrange a certain volume of 0.04 μg/μL NEP24.11 enzyme solution in another sterile EP.

trypsin = biological target: T1, trypsin (Bos taurus, UniProt P00760); test: in vitro; settings: isolated enzyme trypsin, pH 7.8
T1 sequence (P00760 24-246): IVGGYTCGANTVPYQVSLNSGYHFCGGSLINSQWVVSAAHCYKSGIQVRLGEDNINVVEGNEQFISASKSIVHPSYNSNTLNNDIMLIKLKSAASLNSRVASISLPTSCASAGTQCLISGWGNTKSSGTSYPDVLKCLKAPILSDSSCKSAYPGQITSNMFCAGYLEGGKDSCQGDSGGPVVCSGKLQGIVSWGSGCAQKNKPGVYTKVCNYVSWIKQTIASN
Experimental: FIG. 17. […] At different time point, 25 μL aliquots was taken out, and 10% (v/v) TFA was added to terminate the reaction.
as §1
Arrange a certain volume of 0.05 μg/μL trypsin solution in another sterile EP. Incubate the EP tubes containing peptides and enzymes at 37° C. for 5 min, and separately add 6 μL of trypsin solution to each EP tube containing peptides and mix well. Start timing and extract 25 μL of reaction solution at 1.5, 3.0, 4.5, 6.0 and 9.0 min later, respectively. Add 3.75 μL of 10% TFA to terminate the reaction and mix well by centrifugation at 8000 rpm for 30 seconds.
Arrange a certain volume of 0.05 μg/μL trypsin solution in another sterile EP. Incubate the EP tubes containing peptides and enzymes at 37° C. for 5 min, and add 9 μL of trypsin solution to each EP tube containing peptides and mix well. Start timing and extract 25 μL of reaction solution at 1.5, 3.0, 4.5, 6.0, 9.0, 15.0, 30.0, and 60.0 min later, respectively. Add 3.75 μL of 10% TFA to terminate the reaction and mix well by centrifugation at 8000 rpm for 30 seconds.
Referring to the experimental method in Example 5, in vitro stability of salmon Calcitonin analogs with oral administration activity to the enzymatic hydrolysis by trypsin, chymotrypsin and elastase were performed.
Referring to the experimental method in Example 5, in vitro stability of IL-17A inhibitory peptides towards the enzymatic hydrolysis by trypsin, chymotrypsin and elastase were performed.

chymotrypsin = chymotrypsin (Bos taurus, UniProt P00766); test: in vitro; settings: isolated enzyme chymotrypsin, pH 7.8, Remaining peak area (%)/chymotrypsin
Method in brief: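 Peptide and 0.05 μg/μL chymotrypsin were preincubated at 37 °C for 5 min, then mixed. Aliquots taken from 1.5 up to 60.0 min were quenched with 10% TFA, and remaining peptide was measured as RP-HPLC peak area.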

[1] = Stability of GLP-1 and its analogues in human serum; settings: 25% (v/v) human serum; for Remaining peak area (%)/human serum: 0.0 h, peptide 0.03 mM, 37° C.; for remaining at 0.5 h, 0.03 mM / remaining at 2 h, 0.03 mM / remaining at 4 h, 0.03 mM / remaining at 8 h, 0.03 mM / remaining at 12 h, 0.03 mM: human, pH 7

Chain of NEP24.11 (P08473 whole entry): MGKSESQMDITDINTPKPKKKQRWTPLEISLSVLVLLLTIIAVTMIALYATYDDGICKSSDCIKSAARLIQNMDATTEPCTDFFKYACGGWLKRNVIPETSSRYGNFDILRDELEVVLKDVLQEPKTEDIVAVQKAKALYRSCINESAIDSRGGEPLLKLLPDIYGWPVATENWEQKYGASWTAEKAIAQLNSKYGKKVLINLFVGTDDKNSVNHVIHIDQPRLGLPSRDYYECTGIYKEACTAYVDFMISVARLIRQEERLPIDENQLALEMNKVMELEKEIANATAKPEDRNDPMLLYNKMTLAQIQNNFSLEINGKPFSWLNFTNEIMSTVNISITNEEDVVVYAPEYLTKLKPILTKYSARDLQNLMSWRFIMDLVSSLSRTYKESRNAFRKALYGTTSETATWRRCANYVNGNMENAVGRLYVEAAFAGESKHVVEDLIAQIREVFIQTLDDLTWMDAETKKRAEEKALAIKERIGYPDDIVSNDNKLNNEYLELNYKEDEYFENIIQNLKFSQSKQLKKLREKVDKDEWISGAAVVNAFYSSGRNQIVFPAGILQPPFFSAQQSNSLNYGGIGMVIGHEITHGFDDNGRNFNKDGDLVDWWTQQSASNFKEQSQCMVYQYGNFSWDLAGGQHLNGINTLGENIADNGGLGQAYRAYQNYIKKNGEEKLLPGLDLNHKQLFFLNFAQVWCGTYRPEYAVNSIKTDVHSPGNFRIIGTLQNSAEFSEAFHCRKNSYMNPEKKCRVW
Chain of DPP-IV (P27487 whole entry, species assumed): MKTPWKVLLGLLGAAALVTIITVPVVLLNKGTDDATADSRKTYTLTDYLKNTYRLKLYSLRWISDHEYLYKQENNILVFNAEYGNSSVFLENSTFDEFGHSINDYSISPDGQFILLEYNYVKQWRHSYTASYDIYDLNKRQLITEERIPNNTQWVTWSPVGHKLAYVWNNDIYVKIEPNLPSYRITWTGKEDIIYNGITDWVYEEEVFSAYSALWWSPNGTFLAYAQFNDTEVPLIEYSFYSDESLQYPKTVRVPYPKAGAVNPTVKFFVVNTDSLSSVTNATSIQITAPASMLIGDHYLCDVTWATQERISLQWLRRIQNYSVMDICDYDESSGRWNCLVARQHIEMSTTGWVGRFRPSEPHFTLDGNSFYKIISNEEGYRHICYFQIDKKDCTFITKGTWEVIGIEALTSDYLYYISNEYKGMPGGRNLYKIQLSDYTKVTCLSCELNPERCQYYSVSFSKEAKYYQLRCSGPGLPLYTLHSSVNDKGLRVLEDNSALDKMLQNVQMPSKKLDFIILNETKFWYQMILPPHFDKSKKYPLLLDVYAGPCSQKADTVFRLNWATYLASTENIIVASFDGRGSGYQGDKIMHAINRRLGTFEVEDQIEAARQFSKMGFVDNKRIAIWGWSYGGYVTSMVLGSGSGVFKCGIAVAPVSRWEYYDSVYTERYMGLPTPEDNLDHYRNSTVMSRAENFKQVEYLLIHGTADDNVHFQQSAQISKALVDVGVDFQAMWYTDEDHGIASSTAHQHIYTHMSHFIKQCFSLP

SMILES: CC[C@H](C)[C@H](NC(=O)[C@H](Cc1ccccc1)NC(=O)[C@H](CCC(=O)O)NC(=O)[C@H](CCCCN)NC(=O)[C@H](C)NC(=O)[C@H](C)NC(=O)[C@H](CCC(N)=O)NC(=O)CNC(=O)[C@H](CCC(=O)O)NC(=O)[C@H](CC(C)C)NC(=O)[C@H](Cc1ccc(O)cc1)NC(=O)[C@H](CO)NC(=O)[C@H](CO)NC(=O)[C@@H](NC(=O)[C@H](CC(=O)O)NC(=O)[C@H](CO)NC(=O)[C@@H](NC(=O)[C@H](Cc1ccccc1)NC(=O)[C@@H](NC(=O)CNC(=O)[C@H](CCC(=O)O)NC(=O)[C@H](C)NC(=O)[C@H](Cc1c[nH]cn1)NC(=O)CNC(=O)CNC(=O)CNC(=O)CNC(=O)CNC(=O)CNC(=O)CN)[C@@H](C)O)[C@@H](C)O)C(C)C)C(=O)N[C@@H](C)C(=O)N[C@@H](Cc1c[nH]c2ccccc12)C(=O)N[C@@H](CC(C)C)C(=O)N[C@H](C(=O)N[C@@H](CCCCN)C(=O)NCC(=O)N[C@@H](CCCNC(=N)N)C(=O)NCC(=O)O)C(C)C [G7-GLP-1]
- Remaining peak area (%)/DPP-IV (DPP-IV): 100.0 ± 0.0%
- remaining prototype peptide after DPP-IV treatment (DPP-IV; 12 hours): about 34.5%
- remaining at 0.5 h, 25 μM (DPP-IV): 42.1 ± 15.5%
- remaining at 2 h, 25 μM (DPP-IV): 51.1 ± 6.5%
- remaining at 4 h, 25 μM (DPP-IV): 55.3 ± 14.4%
- remaining at 8 h, 25 μM (DPP-IV): 42.3 ± 9.6%
- remaining at 12 h, 25 μM (DPP-IV): 34.5 ± 2.1%
- Remaining peak area (%)/NEP24.11 (NEP24.11; 0.0 h, peptide 30 μM, NEP24.11 1.0 ng/μL, 37° C.): 100.0 ± 0.0%
- degradation by NEP24.11 (in words) (NEP24.11; after 8 hours): almost completely degraded
- remaining at 0.5 h, 30 μM (NEP24.11; isolated NEP24.11 enzyme in buffer, pH 7.4, 0.5 h, peptide 30 μM, NEP24.11 1.0 ng/μL, 37° C.): 63 ± 5.1%
- remaining at 2 h, 30 μM (NEP24.11; isolated NEP24.11 enzyme in buffer, pH 7.4, 2.0 h, peptide 30 μM, NEP24.11 1.0 ng/μL, 37° C.): 27.2 ± 7.2%
- remaining at 4 h, 30 μM (NEP24.11; isolated NEP24.11 enzyme in buffer, pH 7.4, 4.0 h, peptide 30 μM, NEP24.11 1.0 ng/μL, 37° C.): 11.5 ± 0.3%
- remaining at 8 h, 30 μM (NEP24.11; isolated NEP24.11 enzyme in buffer, pH 7.4, 8.0 h, peptide 30 μM, NEP24.11 1.0 ng/μL, 37° C., read-out: Remaining peak area (%)/NEP24.11): 0%
- remaining at 0.025 h, 60 μM (trypsin): 21 ± 2.9%
- remaining at 0.05 h, 60 μM (trypsin): 17.2 ± 0.8%
- remaining at 0.075 h, 60 μM (trypsin): 9.8 ± 2.9%
- remaining at 0.1 h, 60 μM (trypsin): 4.5 ± 0.8%
- remaining at 0.15 h, 60 μM (trypsin): 3.4 ± 1.7%
- remaining at 0.025 h, 60 μM (chymotrypsin): 72.1 ± 11.5%
- remaining at 0.05 h, 60 μM (chymotrypsin): 45.8 ± 6.5%
- remaining at 0.075 h, 60 μM (chymotrypsin): 38 ± 2.3%
- remaining at 0.1 h, 60 μM (chymotrypsin): 29.3 ± 4.7%
- remaining at 0.15 h, 60 μM (chymotrypsin): 11.3 ± 3.2%

SMILES: CC[C@H](C)[C@H](NC(=O)[C@H](Cc1ccccc1)NC(=O)[C@H](CCC(=O)O)NC(=O)[C@H](CCCCN)NC(=O)[C@H](C)NC(=O)[C@H](C)NC(=O)[C@H](CCC(N)=O)NC(=O)CNC(=O)[C@H](CCC(=O)O)NC(=O)[C@H](CC(C)C)NC(=O)[C@H](Cc1ccc(O)cc1)NC(=O)[C@H](CO)NC(=O)[C@H](CO)NC(=O)[C@@H](NC(=O)[C@H](CC(=O)O)NC(=O)[C@H](CO)NC(=O)[C@@H](NC(=O)[C@H](Cc1ccccc1)NC(=O)[C@@H](NC(=O)CNC(=O)[C@H](CCC(=O)O)NC(=O)[C@H](C)NC(=O)[C@H](Cc1c[nH]cn1)NC(=O)CNC(=O)CNC(=O)[C@@H](NC(=O)[C@@H]1CCCN1C(=O)[C@@H](NC(=O)CNC(=O)CNC(=O)[C@H](Cc1ccc(O)cc1)NC(=O)[C@@H]1CSSC[C@H](NC(=O)[C@@H](N)Cc2ccccc2)C(=O)N[C@@H]([C@@H](C)O)C(=O)N[C@@H](Cc2ccc(O)cc2)C(=O)N[C@@H](CO)C(=O)N[C@@H]([C@@H](C)CC)C(=O)N2CCC[C@H]2C(=O)N2CCC[C@H]2C(=O)N[C@@H](CCC(N)=O)C(=O)N1)[C@@H](C)CC)[C@@H](C)CC)[C@@H](C)O)[C@@H](C)O)C(C)C)C(=O)N[C@@H](C)C(=O)N[C@@H](Cc1c[nH]c2ccccc12)C(=O)N[C@@H](CC(C)C)C(=O)N[C@H](C(=O)N[C@@H](CCCCN)C(=O)NCC(=O)N[C@@H](CCCNC(=N)N)C(=O)NCC(=O)NCC(=O)N[C@@H](CCCCN)C(=O)O)C(C)C [CH10-D-GLP-1]
- Remaining peak area (%)/human serum [1]: 100.0 ± 0.0%
- remaining at 0.5 h, 0.03 mM [1]: 74.4 ± 5.5%
- remaining at 2 h, 0.03 mM [1]: 54.8 ± 2.1%
- remaining at 4 h, 0.03 mM [1]: 26.2 ± 2.9%
- remaining at 8 h, 0.03 mM [1]: 7.3 ± 1%
- remaining at 12 h, 0.03 mM [1]: 0.8%
- Remaining peak area (%)/DPP-IV (DPP-IV): 100.0 ± 0.0%
- remaining at 0.5 h, 25 μM (DPP-IV): 91.2 ± 3.2%
- remaining at 2 h, 25 μM (DPP-IV): 94.1 ± 2.3%
- remaining at 4 h, 25 μM (DPP-IV): 86.8 ± 0.8%
- remaining at 8 h, 25 μM (DPP-IV): 84.1 ± 6.7%
- remaining at 12 h, 25 μM (DPP-IV): 81.8 ± 0.6%
- remaining at 0.025 h, 60 μM (chymotrypsin): 59.7 ± 2.1%
- remaining at 0.05 h, 60 μM (chymotrypsin): 59.1 ± 4.5%
- remaining at 0.075 h, 60 μM (chymotrypsin): 54.5 ± 1.2%
- remaining at 0.1 h, 60 μM (chymotrypsin): 57.3 ± 1.5%
- remaining at 0.15 h, 60 μM (chymotrypsin): 56.3 ± 4.7%
- remaining at 0.25 h, 60 μM (chymotrypsin): 54 ± 4.7%
- remaining at 0.5 h, 60 μM (chymotrypsin): 57.4 ± 4%
- remaining at 1 h, 60 μM (chymotrypsin): 59.4 ± 2.1%

SMILES: CC[C@H](C)[C@H](NC(=O)[C@H](Cc1ccccc1)NC(=O)[C@H](CCC(=O)O)NC(=O)[C@H](CCCCN)NC(=O)[C@H](C)NC(=O)[C@H](C)NC(=O)[C@H](CCC(N)=O)NC(=O)CNC(=O)[C@H](CCC(=O)O)NC(=O)[C@H](CC(C)C)NC(=O)[C@H](Cc1ccc(O)cc1)NC(=O)[C@H](CO)NC(=O)[C@H](CO)NC(=O)[C@@H](NC(=O)[C@H](CC(=O)O)NC(=O)[C@H](CO)NC(=O)[C@@H](NC(=O)[C@H](Cc1ccccc1)NC(=O)[C@@H](NC(=O)CNC(=O)[C@H](CCC(=O)O)NC(=O)[C@H](C)NC(=O)[C@H](Cc1c[nH]cn1)NC(=O)CNC(=O)CNC(=O)[C@@H](NC(=O)[C@@H]1CCCN1C(=O)[C@@H](NC(=O)CNC(=O)CNC(=O)[C@H](Cc1ccc(O)cc1)NC(=O)[C@@H]1CSSC[C@H](NC(=O)[C@@H](N)CO)C(=O)N[C@@H]([C@@H](C)O)C(=O)N[C@@H](Cc2ccc(O)cc2)C(=O)N[C@@H](CO)C(=O)N[C@@H]([C@@H](C)CC)C(=O)N2CCC[C@H]2C(=O)N2CCC[C@H]2C(=O)N[C@@H](CCC(N)=O)C(=O)N1)[C@@H](C)CC)[C@@H](C)CC)[C@@H](C)O)[C@@H](C)O)C(C)C)C(=O)N[C@@H](C)C(=O)N[C@@H](Cc1c[nH]c2ccccc12)C(=O)N[C@@H](CC(C)C)C(=O)N[C@H](C(=O)N[C@@H](CCCCN)C(=O)NCC(=O)N[C@@H](CCCNC(=N)N)C(=O)NCC(=O)NCC(=O)N[C@@H](CCCCN)C(=O)O)C(C)C [CH4-D-GLP-1]
- Remaining peak area (%)/human serum [1]: 100.0 ± 0.0%
- remaining at 0.5 h, 0.03 mM [1]: 72.3 ± 0.5%
- remaining at 2 h, 0.03 mM [1]: 34 ± 0.2%
- remaining at 4 h, 0.03 mM [1]: 16.6 ± 0.8%
- remaining at 8 h, 0.03 mM [1]: 4.4 ± 0.2%
- remaining at 12 h, 0.03 mM [1]: 1.8 ± 0.1%
- Remaining peak area (%)/DPP-IV (DPP-IV): 100.0 ± 0.0%
- remaining at 0.5 h, 25 μM (DPP-IV): 88.5 ± 0.7%
- remaining at 2 h, 25 μM (DPP-IV): 90 ± 0.9%
- remaining at 4 h, 25 μM (DPP-IV): 92.4 ± 0.5%
- remaining at 8 h, 25 μM (DPP-IV): 85.1 ± 0.9%
- remaining at 12 h, 25 μM (DPP-IV): 88.6 ± 3.7%
- remaining at 0.025 h, 60 μM (chymotrypsin): 84.9 ± 1.6%
- remaining at 0.05 h, 60 μM (chymotrypsin): 89.6 ± 4.2%
- remaining at 0.075 h, 60 μM (chymotrypsin): 83.6 ± 0.5%
- remaining at 0.1 h, 60 μM (chymotrypsin): 86.2 ± 0.7%
- remaining at 0.15 h, 60 μM (chymotrypsin): 81.1 ± 4.7%
- remaining at 0.25 h, 60 μM (chymotrypsin): 83.3 ± 1.4%
- remaining at 0.5 h, 60 μM (chymotrypsin): 84.5 ± 3.7%
- remaining at 1 h, 60 μM (chymotrypsin): 78.6 ± 2%
